# Experimental data reported in patent publication US20200384079A1, “Compositions of Fibroblast Growth Factor LIgands and Methods of Treating Patients Undergoing Ischemia-Reperfusion Therapy” (University of Cincinnati, priority 2017, published 2020).
# Where “and” joins values, the source holds several entries; their conditions need not be identical. Equal values may be shown once. Entries after “also recorded” stand apart in the source; their conditions may differ. Read-outs that look alike come from different tables or passages of the source.
# B1: FGF1^ΔHBS: FGF1 mutant carrying the K127D/K128Q/K133V triple mutation in its HS-binding region; reduced heparin-binding affinity (protein)
# chain: MAEGEITTFTALTEKFNLPPGNYKKPKLLYCSNGGHFLRILPDGTVDGTRDRSDQHIQLQLSAESVGEVYIKSTETGQYLAMDTDGLLYGSQTPNEECLFLERLEENHYNTYISKKHAEKNWFVGLDQNGSCVRGPRTHYGQKAILFLPLPVSSD
# How the values were obtained:
# [1] = test system: in vivo rat model of myocardial infarction
# [2] = test system: in vivo rat model of myocardial infarction; assay: In vivo rat ischemia-reperfusion model, infarct size (TTC); parameters: species or system Sprague Dawley rats; conditions: for effect on infarct size / cardioprotection (in words): FGF given at reperfusion with heparin co-therapy; for effect on infarct size (in words): given at reperfusion, no heparin co-therapy; for reduction in infarct size compared to saline/vehicle control: given i.v. at reperfusion alone (FGF 10 μg/kg; heparin 12 U/kg/hr)
# Protocol: CVR-2016-799R1 signaling and the other two sets were to evaluate the pharmacokinetic properties of native FGF1 and modified FGF1 (FGF1^ΔHBS). The first set of experiments was for the ischemia/reperfusion study in which animals were divided into six groups as follows: (1) saline group: saline treatment given intravenously for 10 minutes immediately upon reperfusion, (2) heparin group: heparin, 60 U/kg intravenous (i.v.) bolus, given immediately at reperfusion+12 U/kg/hr i.v. infusion for 120 minutes of reperfusion, (3) FGF1 group: FGF1, 10 μg/kg i.v. infusion, given for 10 minutes immediately at reperfusion, (4) FGF1+heparin: heparin, 60 U/kg bolus, given immediately upon reperfusion followed by FGF1, 10 μg/kg i.v. infusion, given for 10 minutes and 12 U/kg/hr i.v. infusion given for 110 minutes of reperfusion, (5) modified FGF1 (FGF1^ΔHBS) group: FGF1^ΔHBS, 10 μg/kg i.v. infusion, given for 10 minutes, or (6) FGF1^ΔHBS+heparin: heparin, 60 U/kg bolus, given immediately at reperfusion followed by FGF1^ΔHBS, 10 μg/kg i.v. infusion, given for 10 minutes and 12 U/kg/hr i.v. infusion for 110 minutes of reperfusion. All rats were subjected to 30 minutes of regional ischemia and 120 minutes of reperfusion. Drugs were administered at the onset of reperfusion via the jugular vein (FIG. 2A). […] A total of ninety-six rats was completed for the I/R study. Sample size for each group ranged from 9-16 depending on the power analysis. A total of thirty-five rats were excluded from the study based on the lack of cyanosis of the heart or typical elevation of the ST segment in the electrocardiogram during ischemia, and death from malignant arrhythmia. For the biodistribution or FGF1 signaling study, rats were randomly divided into six groups as described above (FIG. 2B). Following drug treatment (immediately following 15 minutes of treatment or 105 minutes post-treatment at the point which mimics the length of time of reperfusion), solid organs and blood (see sections “Tissue collection for exogenous FGF1 biodistribution” and “Cardiac preparation to detect the activation of FGF1 downstream molecules”) were collected. A total of 33 rats were used for biodistribution and FGF1 signaling studies, and 3 rats were excluded due to anesthetic overdose. Also, a total of 8 plasma samples were excluded because of hemolysis. For elimination half-life of native FGF1 and FGF1^ΔHBS, 12 rats were randomly divided into two groups and treated intraperitoneally with either FGF1 form as described in the section “Pharmacokinetic evaluation of exogenous FGF1 or FGF1^ΔHBS ”.
# The in vivo I/R model was established by ligating and loosening the left anterior CVR-2016-799R1 descending artery (LAD) previously described by our laboratory. In brief, rats were anesthetized with thiobutabarbital sodium salt hydrate, Inactin® hydrate (100 mg/kg, i.p., Sigma-Aldrich), and intubated and artificially ventilated via a rodent respirator (respiratory rate: 75 strokes/minute; tidal volume: 3 mL; Model 683, Harvard, USA). The heart was exposed through a left thoracotomy and pericardiotomy, and a 6-0 silk suture was placed around the left anterior descending (LAD) coronary artery. After equilibration for 15 minutes, hearts were subjected to 30 minutes of ischemia by ligating the LAD via a snare occluder and reperfusion occurred for 120 minute via loosening the snare occluder. The appearance of cyanosis of the heart and significant ST-segment elevation in the electrocardiogram were used to verify successful ligation.
# At the end of the ischemia-reperfusion injury study, the LAD was re-occluded with the suture used previously for the establishment of ischemia. 5% Evans blue dye solution was given via the jugular vein to define the area-at-risk (AAR). Then, the heart was arrested in diastole with 1 mL of 15% potassium chloride, and the animal was euthanized with an anesthetic overdose followed by a bilateral pneumothorax for removal of the heart. […]
# ERK1/2 = ERK1/2 activation (phosphorylation) in left ventricle, immunoblot; assay type: in vivo, rat; conditions: immediately post-treatment
# Protocol: Hearts from rats treated with saline, native FGF1 or FGF1^ΔHBS in the presence or absence of heparin were collected immediately after administration and at 120 minutes post-treatment for evaluation of downstream signaling. One-half of each snap-frozen heart was powdered and homogenized in protein extraction buffer as previously described by our laboratory. For FGFR1, 150 μg of total protein were loaded onto a 8% SDS-PAGE gel, for ERK1/2 activation, 20 μg of whole cell protein homogenate was loaded onto a 15% SDS-PAGE gel, and for PKCα and PKCδ, […] of whole cell protein homogenate was loaded onto a 10% SDS-PAGE gel and then transferred to nitrocellulose membrane. 0.1% Ponceau S in 5% acetic acid was used to examine the transfer efficiency and loading equality as described previously 43. Membranes were blocked with 5% dry milk and then incubated with primary antibody against phospho-FGFR1 (Y-654, 1:500, Cell Signaling), phospho-ERK1/2 (1:1000, Cell Signaling) or phospho-PKCα (1:500, Santa Cruz) or phospho-PKCδ (1:500, Santa Cruz) followed by incubation with HRP-conjugated secondary goat anti-rabbit antibody (1:3000, Santa Cruz Biotechnology). Membranes were stripped and reprobed with antibodies against total FGFR1 (1:500, Cell Signaling), total ERK (1:1000, BD Transduction Labs) or total PKCα (1:500, Santa Cruz) or PKCδ (1:500, Santa Cruz). Bound antibodies were visualized by ECL system. Activation is indicated as a ratio of phosphorylated protein/total protein. β-actin (1:1000, Cell Signaling) was also used as a loading control.
# Construction of his-tagged native and heparin-binding modified rhFGFs as well as their expression and purification is performed as previously described using his-tagged expression vectors and nickel-nitrilotriacetic acid resin columns. […] His-tagged FGFs are detected in solid organs by ELISA (FIG. 14) both for FGF and histidine (data not shown), and immunoprecipitation (IP) followed by immunoblot and in plasma by ELISA as described previously. His-tags are widely used because they are small and rarely interfere with function, activity, or structure of target proteins. […] There is no observed difference in total ERK or FGFR1 expression between the treatment groups.
# [3] = rat, FGF given at reperfusion with heparin
# [4] = rat, given at reperfusion, no heparin co-therapy
# [5] = as E6 but FGF 10 μg/kg i.v. in the presence of heparin co-administration
# [6] = rat, 30 min ischemia/120 min reperfusion, given i.v. at reperfusion alone (FGF 10 μg/kg; heparin 60 U/kg bolus + 12 U/kg/hr)
molecule,measurement,setting,value
FGF1: native recombinant human fibroblast growth factor 1,recovery of contractility (+dP/dt at 120 minutes post-reperfusion normalized to baseline),"[1]; rat, FGF1 10 μg/kg i.v. at reperfusion, no heparin",69%
same,post-ischemic cardiac function (in words),[1]; [3],reduced the post-ischemic improvement of cardiac function
same,post-ischemic cardiac function (in words),[1]; [4],improved relaxation compared to saline treatment
same,"infarct size (% infarct, percentage of area-at-risk)",[2]; [5],42%
same,"infarct size (% infarct, percentage of area-at-risk)",[2]; [6],35%
same,effect on infarct size / cardioprotection (in words),"[2]; rat, listed as native FGF1",markedly attenuated in the presence of heparin; also recorded: lower in the presence of heparin
same,effect on infarct size (in words),[2]; rat,significantly reduced infarct size compared to saline
same,reduction in infarct size compared to saline/vehicle control,[2]; rat,31%
same,reduction in infarct size compared to saline/vehicle control,"[2]; rat, listed as native FGF1",39% and 31%
same,ERK1/2 activation (phosphorylation) in left ventricle (in words),ERK1/2; FGF with heparin,markedly reduced ERK1/2 activation stimulated by FGF1
same,ERK1/2 activation (phosphorylation) in left ventricle (in words),ERK1/2; no FGF+heparin co-treatment,significantly increased compared to saline or heparin only treatment
B1,heart rate compared to the saline group (in words),[1]; rat I/R study,no significant differences in heart rate
same,post-ischemic cardiac function (in words),[1]; [3],"improved post-ischemic cardiac function, even in the presence of heparin"
same,post-ischemic cardiac function (in words),[1]; [4],significantly improved compared to the native FGF1 cohorts; also recorded: significantly improved post-ischemic cardiac function compared to native FGF1; also recorded: greater improvement in cardiac function compared to FGF1
same,"infarct size (% infarct, percentage of area-at-risk)",[2]; [5],32%
same,"infarct size (% infarct, percentage of area-at-risk)",[2]; [6],22%
same,effect on infarct size / cardioprotection (in words),[2]; rat,"minor, and no statistically significant, inhibition; also recorded: did not reduce the cardioprotective effect; also recorded: not altered in the presence of heparin"
same,effect on infarct size (in words),[2]; rat,marked reduction in infarct size compared to the native form of FGF1; also recorded: markedly lowered infarct size compared to FGF1
same,reduction in infarct size compared to saline/vehicle control,[2]; rat,62% and 60%
same,fold more efficacious in reducing infarct size than native FGF1,"[2]; rat, same dose at reperfusion",~2 fold
same,ERK1/2 activation (phosphorylation) in left ventricle (in words),ERK1/2; no FGF+heparin co-treatment,significantly increased compared to saline or heparin only treatment; also recorded: significantly higher level of phosphorylated ERK1/2
